Where a name gives a salt, the structure may show the parent alone.
What was measured:
[1] = biological target: GST-tagged recombinant human TYRO3 kinase domain (Homo sapiens (Human), UniProt Q06418); assay: TYRO3 Enzyme Assay (LanthaScreen Eu Kinase Binding, TR-FRET); conditions: averaged IC50
Procedure: (§1) Compounds of Formula I were screened for their ability to inhibit TYRO3 kinase using Invitrogen's LanthaScreen™ Eu Kinase Binding technology. […] After a 60-minute incubation at 22° C., the reaction was measured using a PerkinElmer EnVision multimode plate reader via TR-FRET dual wavelength detection, and the percent of control (POC) calculated using a ratiometric emission factor. […] The POC values were fit to a 4 parameter logistic curve and the IC50 value is point where the curve crosses 50 POC.

[2] = biological target: His-tagged recombinant human MER cytoplasmic domain (Homo sapiens (Human), UniProt Q12866); assay: MER Enzyme Assay (LanthaScreen Eu Kinase Binding, TR-FRET); conditions: averaged IC50
Procedure: as §1, with “inhibit MER” for “inhibit TYRO3”, “(POC) was” for “(POC)”, “values are” for “values were”

Chain of GST-tagged recombinant human TYRO3 kinase domain (Q06418 518-790): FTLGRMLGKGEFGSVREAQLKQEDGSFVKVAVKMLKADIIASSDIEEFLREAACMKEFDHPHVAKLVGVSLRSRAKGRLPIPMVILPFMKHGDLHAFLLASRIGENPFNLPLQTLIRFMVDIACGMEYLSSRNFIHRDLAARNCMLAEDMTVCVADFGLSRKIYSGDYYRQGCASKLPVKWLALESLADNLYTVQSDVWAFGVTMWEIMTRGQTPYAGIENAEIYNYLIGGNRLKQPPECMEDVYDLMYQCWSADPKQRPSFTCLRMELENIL
Chain of His-tagged recombinant human MER cytoplasmic domain (Q12866 527-999): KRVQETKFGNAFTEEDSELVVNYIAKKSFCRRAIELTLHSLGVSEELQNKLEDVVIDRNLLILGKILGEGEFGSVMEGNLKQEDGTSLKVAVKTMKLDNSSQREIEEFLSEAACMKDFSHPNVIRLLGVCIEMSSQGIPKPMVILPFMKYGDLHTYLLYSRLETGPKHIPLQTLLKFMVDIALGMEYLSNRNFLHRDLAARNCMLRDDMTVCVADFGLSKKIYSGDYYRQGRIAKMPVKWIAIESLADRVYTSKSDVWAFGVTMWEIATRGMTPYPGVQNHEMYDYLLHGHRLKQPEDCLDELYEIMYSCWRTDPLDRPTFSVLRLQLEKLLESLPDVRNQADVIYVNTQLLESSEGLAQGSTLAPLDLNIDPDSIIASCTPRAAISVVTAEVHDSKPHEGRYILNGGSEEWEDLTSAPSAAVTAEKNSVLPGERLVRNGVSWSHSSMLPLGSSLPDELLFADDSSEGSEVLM

SMILES	IC50 [1] [µM]	IC50 [2] [µM]
CNc1cc2c(cn1)c(-c1cnn(C)c1)nn2[C@H]1CC[C@@H](Oc2nn(C)c(=O)cc2C)CC1 [Example 6, 2,5-dimethyl-6-(((1s,4s)-4-(3-(1-methyl-1H-pyrazol-4-yl)-6-(methylamino)-1H-pyrazolo[4,3-c]pyridin-1-yl)cyclohexyl)oxy)pyridazin-3(2H)-one]	1 to 10	
CNc1cc2c(cn1)c(-c1cnn(C)c1)nn2[C@H]1CC[C@@H](Oc2nn(C)c(=O)c(C)c2C)CC1 [Example 8, 2,4,5-trimethyl-6-(((1s,4s)-4-(3-(1-methyl-1H-pyrazol-4-yl)-6-(methylamino)-1H-pyrazolo[4,3-c]pyridin-1-yl)cyclohexyl)oxy)pyridazin-3(2H)-one hydrochloride]	1 to 10	
CCNc1cc2c(cn1)c(-c1cnn(C)c1)nn2[C@H]1CC[C@@H](Oc2ccc(=O)n(CCOC)n2)CC1 [Example 13, 6-(((1s,4s)-4-(6-(ethylamino)-3-(1-methyl-1H-pyrazol-4-yl)-1H-pyrazolo[4,3-c]pyridin-1-yl)cyclohexyl)oxy)-2-(2-methoxyethyl)pyridazin-3(2H)-one]	1 to 10	
CCn1nc(O[C@H]2CC[C@@H](n3nc(-c4cnn(C)c4)c4cnc(NC)cc43)CC2)ccc1=O [Example 14, 2-ethyl-6-(((1s,4s)-4-(3-(1-methyl-1H-pyrazol-4-yl)-6-(methylamino)-1H-pyrazolo[4,3-c]pyridin-1-yl)cyclohexyl)oxy)pyridazin-3(2H)-one]	1 to 10	
CNc1cc2c(cn1)c(-c1cnn(C)c1)nn2[C@H]1CC[C@@H](Oc2ccc(=O)n(CC(C)C)n2)CC1 [Example 16, 2-isobutyl-6-(((1s,4s)-4-(3-(1-methyl-1H-pyrazol-4-yl)-6-(methylamino)-1H-pyrazolo[4,3-c]pyridin-1-yl)cyclohexyl)oxy)pyridazin-3(2H)-one]	1 to 10	

Now from value to compound:

IC50 [1] [µM]	IC50 [2] [µM]	SMILES
1 to 10		CNc1cc2c(cn1)c(-c1cnn(C)c1)nn2[C@H]1CC[C@@H](Oc2ccc(=O)n(CCOC)n2)CC1 [Example 17, 2-(2-methoxyethyl)-6-(((1s,4s)-4-(3-(1-methyl-1H-pyrazol-4-yl)-6-(methylamino)-1H-pyrazolo[4,3-c]pyridin-1-yl)cyclohexyl)oxy)pyridazin-3(2H)-one]
	< 0.01	CCNc1cc2c(cn1)c(-c1cnn(C[C@H](O)[C@H](C)O)c1)nn2[C@H]1CC[C@@H](Oc2ccccc2F)CC1 [Example 430, (2S,3S)-1-(4-(6-(ethylamino)-1-((1s,4R)-4-(2-fluorophenoxy)cyclohexyl)-1H-pyrazolo[4,3-c]pyridin-3-yl)-1H-pyrazol-1-yl)butane-2,3-diol]
	< 0.01	CCNc1cc2c(cn1)c(-c1cnn(C[C@@H](O)CO)c1)nn2[C@H]1CC[C@@H](Oc2cccc(C)c2F)CC1 [Example 438, (R)-3-(4-(6-(ethylamino)-1-((1s,4S)-4-(2-fluoro-3-methylphenoxy)cyclohexyl)-1H-pyrazolo[4,3-c]pyridin-3-yl)-1H-pyrazol-1-yl)propane-1,2 diol]
	< 0.01	CCNc1cc2c(cn1)c(-c1cnn(C[C@H](O)C(C)(C)O)c1)nn2[C@H]1CC[C@@H](Oc2cccc(Cl)c2)CC1 [Example 441, (S)-1-(4-(1-((1s,4R)-4-(3-chlorophenoxy)cyclohexyl)-6-(ethylainino)-1H-pyrazolo[4,3-c]pyridin-3-yl)-1H-pyrazol-1-yl)-3-methylbutane-2,3-diol]
	< 0.01	CCNc1cc2c(cn1)c(-c1cnn(C[C@@H](O)C(C)(C)O)c1)nn2[C@H]1CC[C@@H](Oc2cccc(Cl)c2)CC1 [Example 443, (R)-1-(4-(1-((1s,4S)-4-(3-chlorophenoxy)cyclohexyl)-6-(ethylamino)-1H-pyrazolo[4,3-c]pyridin-3-yl)-1H-pyrazol-1-yl)-3-methylbutane-2,3-diol]
	< 0.01	CCNc1cc2c(cn1)n(-c1ccc(CN3CCN(C)CC3)cc1)nc2[C@H]1CC[C@@H](Oc2ccccc2F)CC1 [Example 482, N-ethyl-3-((1s,4s)-4-(2-fluorophenoxy)cyclohexyl)-1-(4-((4-methylpiperazin-1-yl)methyl)phenyl)-1H-pyrazolo[3,4-c]pyridin-5-amine]

From patent US11247990B1, “Bicyclic fused pyridine compounds as inhibitors of TAM kinases” (ARRAY BIOPHARMA INC., priority 2017, dated 2022)
